# According to patent US9181218B2, “Compounds for improved stem cell differentiation into hepatocytes” (Hoffmann-La Roche Inc., priority 2013, dated 2015):
# System: Human iPSC-derived hepatocytes (iCell® Hepatocytes)
# Test: Gene expression profiling of iCell Hepatocytes by microfluidic qRT-PCR
# Assay type: cell-based
# Conditions: multiple doses, FIG. 1
# Description: Human iPSC-derived hepatocytes (iCell® Hepatocytes) were exposed to the compounds of formula I with the goal of identifying conditions that favor greater functionality that better models the adult organ. […] Gene expression changes were validated and confirmed in a secondary screen, and functional consequences were queried.
# Fresh iCell® Hepatocytes (day 20-23) were plated and cultured according to iCell Hepatocytes Dissociation and Plating User's Guide at 60 k cells per well in 96 well BIO Collagen IV coated plates (BD Cat#354429) 4 Hours post plating Medium C was removed and replaced with a 1:50 Matrigel (Cat#354227) overlay in Medium D. We dosed the cells at 5 uM in Medium D and 1% DMSO 24 hours post plating. Day 3, media was removed and we dosed again at 5 uM. Day 4 we Harvested RNA.
# Sample RNA was isolated using TaqMan® Gene Expression Cells-to-CT™ Kit (Life Technologies Cat#4387299) froze at −80 C at various time points post compound treatment. All samples were processed by microfluidic quantitative PCR using the Biomark Fluidigm 96.96 chips (BMK-M-96.96) and ABI Taqman probes. Normalization and model-based expression measurements were calculated using the Biogazelle qBASE and Genorm software. […] Expression values are calculated by the fold change over vehicle control. […]
compound,measurement,value
"O=C(NCc1cccc(F)c1)c1cccc2nc(-c3c(NC[C@@H](O)c4ccccc4)cc[nH]c3=O)[nH]c12 [Example 1, 2-[4-((S)-2-hydroxy-2-phenyl-ethylamino)-2-oxo-1,2-dihydro-pyridin-3-yl]-3H-benzoimidazole-4-carboxylic acid 3-fluoro-benzylamide]",expression of genes spanning hepatocyte function,global increase of genes spanning hepatocyte function
